# Read-outs that look alike come from different tables or passages of the source.
# Legend:
# FIP1L1-PDGFRαT674I = type: in vivo, Balb/c mice; settings: at time of death or trial endpoint
# Description: (§1) The retroviral construct MSCV-FIP1L1-PDGFRα-ires-EGFP and the corresponding T674I mutant were described previously (Cools et al., New England Journal of Medicine Vol. 348 No. 13, p 1201-1214 2003). The N659D mutation was introduced by PCR (polymerase chain reaction).
# (§2) Balb/c mice were purchased from Taconic (Germantown, N.Y.). Bone marrow transplant assays (injecting 1×10^6 cells per recipient mouse) and drug treatment of the mice was performed as described previously (Schwaller et al., 1998; Kelly et al.; Weisberg et al., 2002). Imatinib (stored as powder at 4° C.) was resuspended in a 0.5% methylcellulose (MC) solution in water prior to use. PKC412 (6% w/w in Gelucire® 44/14 (GC) (Gattefosse,France)) was stored at 4° C. as a waxy-solid formulation. Prior to administration, the GC/PKC412 waxy solid mixture was melted in a 44° C. water bath and diluted with sterilized deionized water. The animals were weighed at regular basis to ensure that a consistent dose (150 mg/kg/day for imatinib and 100 mg/kg/day for PKC412) of drug was administered. Dosing was performed every 12 hr for imatinib and every 24 hr for PKC412 by oral gavage of a maximum volume of 150 μl per animal using 22 gauge gavage needles (Hornbecks). Placebo animals received the same volume of a MC or GC solution. Any animals with splenomegaly (spleen boundary detectable at the dorsal medline) or that were moribund were sacrificed and analysed for signs of hematological disease. Peripheral blood was collected from the retroorbital cavity using a heparinized glass capillary. Blood smears were stained with Wright and Giemsa. Manual and automated (ADIVA 120 Hematology system, Bayer) total and differential blood cell counts were performed. Histopathologic exam of relevant organs (spleen, liver, heart, lungs, Intestine, hindlimb bones, and kidneys) and preparation of single-cell suspensions from spleen and bone marrow for flow cytometry was performed as described. In comparing the survival time of the mice, all times are measured from the day of BMT (bone marrow transplant), and the log rank test is used to attach a significance level to the difference in the survival curve.
# FIP1L1-PDGFRα wild type = target: T1, FIP1L1-PDGFRα wild type (Homo sapiens, UniProt P16234); test: Bone marrow transplant model of FIP1L1-PDGFRα-induced myeloproliferative disease; type: in vivo, Balb/c mice; settings: at time of death or trial endpoint
# T1 construct: FIP1L1 (N-terminal part of FIP1-like 1, Q6UN15); expressed in transfected cells; host or cells: Bone marrow cells retrovirally transduced with MSCV-FIP1L1-PDGFRα-ires-EGFP and transplanted into Balb/c mice; the other entry of the earlier key: FIP1L1 (Q6UN15, Pre-mRNA 3'-end-processing factor FIP1)
# T1 sequence (P16234 593-1089 limits assumed): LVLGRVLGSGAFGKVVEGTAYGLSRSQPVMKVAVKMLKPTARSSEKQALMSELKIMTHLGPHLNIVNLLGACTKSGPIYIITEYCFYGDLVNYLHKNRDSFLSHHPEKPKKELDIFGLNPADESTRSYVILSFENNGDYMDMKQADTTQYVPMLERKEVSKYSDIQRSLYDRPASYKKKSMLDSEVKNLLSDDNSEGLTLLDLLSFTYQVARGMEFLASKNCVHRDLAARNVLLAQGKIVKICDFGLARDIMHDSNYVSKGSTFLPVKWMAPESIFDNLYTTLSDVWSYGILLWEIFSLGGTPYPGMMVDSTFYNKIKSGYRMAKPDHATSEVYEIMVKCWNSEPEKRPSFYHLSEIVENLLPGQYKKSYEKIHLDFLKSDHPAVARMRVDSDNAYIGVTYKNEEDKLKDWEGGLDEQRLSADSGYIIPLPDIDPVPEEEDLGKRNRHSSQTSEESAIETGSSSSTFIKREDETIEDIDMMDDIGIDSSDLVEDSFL
# Description: as §1, §2
# [1] = trial 1, FIP1L1-PDGFRαT674I, imatinib 150 mg/kg/day oral gavage
# [2] = trial 2, FIP1L1-PDGFRα T674I, imatinib 150 mg/kg/day, PKC412 100 mg/kg/day, oral gavage
# [3] = trial 1, FIP1L1-PDGFRα wild type, imatinib 150 mg/kg/day oral gavage
# [4] = trial 2, FIP1L1-PDGFRα, imatinib 150 mg/kg/day, PKC412 100 mg/kg/day, oral gavage
structure (smiles),measurement,setting,value
Cc1ccc(NC(=O)c2ccc(CN3CCN(C)CC3)cc2)cc1Nc1nccc(-c2cccnc2)n1 [imatinib],"WBC, mean",FIP1L1-PDGFRαT674I; [1],4.965e+08 mL⁻¹
same,"WBC, median",FIP1L1-PDGFRαT674I; [1],5.077e+08 mL⁻¹
same,"WBC, range",FIP1L1-PDGFRαT674I; [1],434.6-535.8 ×10^6/ml
same,"WBC, mean",FIP1L1-PDGFRαT674I; [2],5.482e+08 mL⁻¹
same,"WBC, median",FIP1L1-PDGFRαT674I; [2],5.915e+08 mL⁻¹
same,"WBC, range",FIP1L1-PDGFRαT674I; [2],364.9-657.6 ×10^6/ml
same,"WBC, mean",FIP1L1-PDGFRα wild type; [3],6e+06 mL⁻¹
same,"WBC, median",FIP1L1-PDGFRα wild type; [3],5.2e+06 mL⁻¹
same,"WBC, range",FIP1L1-PDGFRα wild type; [3],4.6-9.4 ×10^6/ml
same,"WBC, mean",FIP1L1-PDGFRα wild type; [4],4.8e+06 mL⁻¹
same,"WBC, median",FIP1L1-PDGFRα wild type; [4],4.8e+06 mL⁻¹
same,"WBC, range",FIP1L1-PDGFRα wild type; [4],4.4-5.3 ×10^6/ml

# Source: patent US20060229290A1, “Staurosporine derivatives for hypereosinophilic syndrome” (priority 2003, published 2006)
